In article PMC6101033 (Neuron, 2017):

What was measured:
RhoA = assay: RhoA2G FRET sensor imaging in hippocampal neurons; conditions: AP5 1μM + ADDLs; dendritic shaft; Figure S4E
[1] = system: calcium signaling in hippocampal neurons; assay: RCaMP calcium sensor imaging in hippocampal neurons; conditions: for baseline calcium in dendrites, VGCC blockers: all 1μM, sustained (1 min mean) ΔF/F of shaft ROIs, n=3–11 neurons, p<0.03 vs control imaging period; for inhibition of dendritic calcium in neurons lacking T-type channels: shCaV3.1-3.3, Figure S5E
T-type calcium channels [2] = assay: T-type currents in acute hippocampal slices; parameters: species or system mouse; conditions: NNC added to slice; Figure S8E
hippocampal neurons [3] = assay: cell health and dendritic spine integrity under blockers; assay type: cell-based, Long-Evans rat; conditions: hippocampal slice cultures; data not shown
[4] = system: CA1 pyramidal neurons (Schaffer collateral-CA1 synapses)
T-type calcium channels [5] = assay: whole-cell T-type; assay type: cell-based, Long-Evans rat; conditions: for T-type current inhibition, blockers: 1μM; for LV currents in neurons lacking all T-type channels: shCaV3.1-3.3, Figure S6F
LTP = conditions: ref Moriguchi et al., 20012; cited from earlier work
T-type channel = conditions: ref Yamamoto et al, 2013; cited from earlier work
hippocampal neurons [6] = conditions: ref Wills et al., 2012; cited from earlier work
[7] = AP5 1μM + ADDLs, dendritic shaft, Figure S4E

In the case of NC(CCCP(=O)(O)O)C(=O)O (stereo not drawn) [AP5], the “long-term RhoA activation by ADDLs under NMDAR inhibition” value (RhoA) is reported as “long-term activation of RhoA and inhibition of calcium signaling is preserved”, the “acute calcium response to ADDLs under NMDAR inhibition” value [1, 7] is reported as “acute calcium responses to ADDLs in the dendritic shaft of neurons are lost” and the “long-term calcium inhibition by ADDLs under NMDAR inhibition” value [1, 7] is reported as “long-term activation of RhoA and inhibition of calcium signaling is preserved”.
For CC(C)[C@H]1c2ccc(F)cc2CC[C@@]1(CCN(C)CCCc1nc2ccccc2[nH]1)OC(=O)C1CC1 [NNC], the “LV currents in acute hippocampal slice” value (T-type calcium channels [2]) was “inhibits LV currents in our acute hippocampal slice recording”, the “effects on dendritic spines, NNC” value (hippocampal neurons [3]) was “no pathological effects on dendritic spines in hippocampal slice cultures” and the “LTP rescue under ADDLs by ROCK inhibition or NgR loss, effect of NNC” value ([4]; NNC 10μM + ADDL + Y27632 (10μM) or NgR^NNN, p<0.04) was “reverses the capacity of ROCK inhibition (Y27632) or NgR loss (NgR^NNN) to rescue neurons from ADDL-mediated LTP reduction”. For the same compound, the “LTP, NNC combined with ADDLs” value ([4]; NNC 10μM + ADDL, fEPSC 55–60 min, n=6–8 animals/slices per condition) was “no greater inhibition of LTP than either ADDL or NNC alone”, the “LTP, T-type channel blocker” value ([4]; NNC 10μM, 6 months mice, fEPSC 55–60 min, p<0.001 vs CON) was “inhibits LTP in acute hippocampal slices” and the “T-type current inhibition, blockers” value (T-type calcium channels [5]) was “ADDL’s inhibition of T-type currents was comparable to T-type channel blockers NNC and TTA-P2”. The “LV currents in neurons lacking all T-type channels” value (T-type calcium channels [5]) was “neither NNC or TTAP2 inhibit LV currents in neurons lacking all T-type channels”, the “baseline calcium in dendrites, VGCC blockers” value [1] was “elicited the largest reductions in baseline calcium in dendrites” and the “inhibition of dendritic calcium in neurons lacking T-type channels” value [1] was “eliminates NNC and TTA-P2’s inhibition of calcium signaling in dendrites”.
For O=C1N=C2C=CC=CN2C12Cc1ccccc1C2 [STK101, spiro[imidazo-[1,2-a]pyridine-3,2-indan]-2(3H)-one], the LTP (LTP) is given as “enhances LTP” and the T-type channel agonism (T-type channel) is given as “T-type channel agonist”.
In the case of CC1(C)C[C@@H](CN2CCC(F)(CNC(=O)c3cc(Cl)cc(Cl)c3)CC2)CCO1 [TTA-P2], the “T-type current inhibition, blockers” value (T-type calcium channels [5]) is reported as “ADDL’s inhibition of T-type currents was comparable to T-type channel blockers NNC and TTA-P2”, the “LV currents in neurons lacking all T-type channels” value (T-type calcium channels [5]) is reported as “neither NNC or TTAP2 inhibit LV currents in neurons lacking all T-type channels” and the “baseline calcium in dendrites, VGCC blockers” value [1] is reported as “elicited the largest reductions in baseline calcium in dendrites”. For the same compound, the “inhibition of dendritic calcium in neurons lacking T-type channels” value [1] was “eliminates NNC and TTA-P2’s inhibition of calcium signaling in dendrites”.
In the case of C[C@@H](N)[C@H]1CC[C@H](C(=O)Nc2ccncc2)CC1 [Y27632], the “neuron health, Y27632” value (hippocampal neurons [6]) is given as “no deleterious effects on neuron health”, the “LTP, reversal of ADDL inhibition” value ([4]; Y27632 1μM preincubation + ADDLs 150 nM, fEPSC 55–60 min, p<0.05 vs ADDL) is given as “reverses ADDL’s inhibition of LTP” and the “LTP, ROCK inhibitor alone” value ([4]; Y27632 1μM, control neurons, no ADDLs, p<0.03 vs CON (WT)) is given as “blocks LTP”. For the same compound, the “reversal of ADDL block of T-type currents” value (T-type calcium channels [5]; Y27632 1μM + ADDLs) was “reverses ADDL’s block of T-type channel currents”, the “ADDL inhibition of dendritic calcium under ROCK inhibition” value ([1]; Y27632 1μM, 10 minutes, then ADDLs 150nM, n=3 neurons) was “ADDL-mediated inhibition of dendritic calcium signaling in neurons is lost” and the “RCaMP activity in the dendritic shaft, ROCK inhibitor” value ([1]; Y27632 1μM, 1 min mean ΔF/F, shaft ROIs) was “marked rise in RCaMP activity in the dendritic shaft of neurons”. The “ADDL inhibition of dendritic calcium after washout of Y27632” value ([1]; washout 10 minutes, then ADDLs 150nM, n=3 neurons, p<0.001 vs CON) was “following a washout of Y27632, ADDL’s inhibition of dendritic calcium signaling is restored”.
In the case of COCCOC(=O)C1=C(C)NC(C)=C(C(=O)OC(C)C)C1c1cccc([N+](=O)[O-])c1 (stereo not drawn) [nimodipine], the “LTP, L-type channel blocker” value ([4]; Nimodipine 1μM, 6 months mice, fEPSC 55–60 min) is reported as “no effect on LTP”.
With lysophosphatidic acid [LPA] the “T-type currents, RhoA activator” value (T-type calcium channels [5]; LPA 1μM vs ADDLs 150nM, 14–18 DIV) was “inhibits T-type currents with a magnitude comparable to that of ADDLs”.
